Experiments:
Inward Calcium current = details: Table 1; cited from earlier work
[1] = tested on: Outward potassium current; details: Table 1; cited from earlier work
Inward sodium current = details: Table 1; cited from earlier work
[2] = tested on: ventricular repolarization, QT interval and Torsade; details: cited from earlier work
[3] = tested on: slow component of the delayed rectifier K+ current (IKs); details: cited from earlier work
[4] = Clinic case studies: blood pressure, pulse, body weight, edema, GFR, EKG; assay type: in vivo, human
[5] = Clinic case studies: serum laboratory profile (uric acid, potassium, creatinine, urea nitrogen); assay type: in vivo, human
[6] = tested on: non-diabetic patients already receiving dual therapy with both an ACEI plus an ARB agent; details: after 1 year; non-diabetic patients on ACEI plus ARB; independent of BP changes; cited from earlier work

Row | uric acid ([5]; Case 1, Day 25, indapamide 2.5 mg with losartan 50 mg, terazosin 2 mg) [mg/dL] | creatinine ([5]; Case 1, Day 25, indapamide 2.5 mg with losartan 50 mg, terazosin 2 mg, Day 0 value 2.3) [mg/dL] | urea nitrogen ([5]; Case 1, Day 25, indapamide 2.5 mg with losartan 50 mg, terazosin 2 mg, Day 0 value 46) [mg/dL] | serum uric acid ([5]; Case 4, indapamide 1.25 mg per day with losartan, amlodipine, after 9 months, baseline 7.5) [mg/dL] | serum potassium ([5]; Example 3 Case 1, stage 4 CKD, Day 25, on indapamide 2.5 mg, losartan 50 mg, terazosin 2 mg since Day 13, Day 0 value 5.2) [mmol/L] | serum creatinine and urea nitrogen ([5]; Example 3 Case 4, diabetic nephropathy, losartan 100 mg, amlodipine 5 mg, indapamide 1.25 mg per day, after 9 months) | Structure (SMILES) | action on inward calcium current (Inward Calcium current) | action on outward potassium current [1] | action on inward sodium current (Inward sodium current) | QT dispersion ([2]; Table 1) | QT interval ([2]; Table 1) | Torsade ([2]; Table 1) | QT interval and torsade de pointes in patients ([2]; in the presence of normal electrolytes (Letsas, Alexanian et al. 2006)) | effect on IKs [3] | pedal edema ([4]; Case 1, Day 34, indapamide 2.5 mg with losartan 50 mg, terazosin 2 mg, before spironolactone) | blood pressure ([4]; Case 1, Day 34, indapamide 2.5 mg with losartan, terazosin, Day 13 value 142/82) | blood pressure ([4]; Example 3 Case 2, diabetic nephropathy, 6 months, 1 month after indapamide 1.25 mg, diltiazem 300 mg started and losartan raised to 100 mg, before 168/108) | additive reduction of proteinuria [6] [%]
1 | – | – | – | – | – | – | C[C@]12CCC(=O)C=C1CC[C@@H]1[C@@H]2[C@@H](O)C[C@]2(C=O)[C@@H](C(=O)CO)CC[C@@H]12 [Aldosterone] | Increases | No effect | Incresases | – | – | – | – | – | – | – | – | –
2 | 7.5 | 2.6 | 36 | 7.0 | 4.1 | unchanged | CC1Cc2ccccc2N1NC(=O)c1ccc(Cl)c(S(N)(=O)=O)c1 (stereo not drawn) [indapamide, 4-chloro-N-(2-methyl-2,3-dihydroindol-1-yl)-3-sulfamoyl-benzamide] | No effect | Slows | No effect | increased | prolongs | prediposes | QT interval prolongation and torsade de pointes | blocks | decreased | 150/90 | 145/93 | –
3 | – | – | – | – | – | – | CC(=O)S[C@@H]1CC2=CC(=O)CC[C@]2(C)[C@H]2CC[C@@]3(C)[C@@H](CC[C@@]34CCC(=O)O4)[C@H]12 [spironolactone] | – | – | – | – | – | – | – | – | – | – | – | 58
